Read-outs that look alike come from different tables or passages of the source.
Assays:
[1] = Biodistribution study of [18F]B-23; conditions: mean ± SD, n = 3
Experimental: (§2) The biodistribution study was carried out in male Wistar rats (body weight 320-370 g) at 2 min, 10 min and 30 min post injection (p.i.) (n=3/time point). […] Blood and major organs were collected in tared tubes and weighed. The radioactivity in blood, organs and other body parts was measured using an automated gamma counter. The distribution of radioactivity in different parts of the body at different time points p.i. of the tracer was calculated and expressed as percentage of injected dose (% ID), and as standardized uptake values (SUV) for the selected organs. % ID is calculated as counts per minute (cpm) in organ/total cpm recovered. SUVs are calculated as (radioactivity in cpm in organ/weight of the organ in g)/(total counts recovered/body weight in g). For calculation of total radioactivity in blood, blood mass was assumed to be 7% of the body mass.

[2] = Plasma radiometabolite analysis of [18F]B-23; assay type: in vivo, rat; conditions: for recovered radioactivity present as intact tracer in plasma: n=1
Experimental: (§1) The metabolic stability of the tracer was studied in normal rats by determination of the relative amounts of parent tracer and radiometabolites in plasma and brain at 2 min and 10 min p.i. of the tracer. […] (n=1), blood was collected in lithium heparin containing tubes (4.5 mL LH PST tubes; BD vacutainer, BD, Franklin Lakes, USA) and stored on ice. Brain was dissected and rinsed with saline (decapitation was preferred since it was difficult to have the rat perfused already at 2 min p.i.). For the 10 min timepoint, rats (n=1) were injected with about 37 MBq of tracer and sacrificed at 10 min p.i by administering an overdose of Nembutal (CEVA Sante Animale, 200 mg/kg intraperitoneal). The rats were perfused by injection of saline into the left ventricle until the liver turned pale. During perfusion, blood was collected and stored on ice. Brain was isolated.
For the plasma radiometabolite analysis, the blood was centrifugated for 10 min at 3000 rpm to separate the plasma. A volume of about 0.1 mL of plasma sample was isolated and spiked with about 10 μL of authentic non-radioactive reference material (1 mg/mL) for identification. The plasma was then injected onto an HPLC system consisting of a Chromolith Performance column (C18, 3 mm×100 mm, Merck) that was eluted with mixtures of 0.05 M NaOAc pH 5.5 (solvent A) and acetonitrile (solvent B). The following method was used for the analysis: isocratic elution with 100% A for 4 min at a flow rate of 0.5 mL/min, then linear gradient to 90% B by 14 min at a flow rate of 1 mL/min, and isocratic elution with a mixture of 10% A and 90% B at a flow rate of 1 mL/min until 17 min. After passing through an in-line UV detector (254 nm) and over a 3 in. NaI(Tl) scintillation detector connected to a single channel analyzer (Gabi box, Raytest, Straubenhardt Germany), the HPLC eluate was collected per minute using an automatic fraction collector. The radioactivity in all fractions was measured using an automated gamma counter. The peak corresponding to the intact tracer eluted at ˜11 min. Polar radiometabolite(s) were eluting from 1 to 3 min. Slightly more polar radiometabolites (relatively to the polarity of the intact tracer) were eluting just before the intact tracer. Faster metabolisation is observed in plasma compared to brain. At 2 min p.i., about 70% of the recovered radioactivity was present as intact tracer. Two more polar radiometabolites (M1, M3) were observed of which one (M3) was closely eluting to the intact tracer. At 10 min p.i., the presence of a large amount of a third polar metabolite (M2, also closely eluting to the parent compound) was observed which accounted for about 60% of the recovered radioactivity. At 10 min p.i., only ˜20% of the recovered radioactivity was still present as intact tracer.

[3] = Brain radiometabolite analysis of [18F]B-23; assay type: in vivo, rat
Experimental: as §1
For the brain radiometabolite analysis, cerebrum and cerebellum were separated and homogenized in 3 mL and 2 mL of acetonitrile respectively, for about 3 min. A volume of 1 mL of this homogenate was diluted with an equal volume of water and 1 mL of the supernatant was filtered through a 0.22 μm filter (Millipore, Bedford, USA). About 0.5 mL of the filtrate was diluted with 0.1 mL of water and spiked with 10 μL of authentic reference material (1 mg/mL) for identification. A volume of 0.5 mL of the homogenate extracts were injected onto an HPLC system consisting of an analytical XBridge column (C18, 3.5 μm, 3 mm×100 mm, Waters) eluted with a mixture of 0.05 M sodium acetate (pH 5.5) and CH3CN (76:24 v/v) at a flow rate of 0.8 mL/min. The HPLC eluate was collected as 0.8-mL fractions (fraction collection per minute) after passing through the UV detector (254 nm), and radioactivity in the fractions was measured using an automated gamma counter. The peak corresponding to the intact tracer eluted around 10 min, the polar radiometabolite(s) around 5 min.

[4] = male, Wistar, rat, in vivo
Experimental: as §2

## Cc1nc2ccc(CN3CCOCC3)cc2n2c(-c3c([18F])cccc3Cl)nnc12 [[^18F]B-23, 1-(2-Chloro-6-[^18F]fluorophenyl)-4-methyl-8-(morpholin-4-ylmethyl)[1,2,4]triazolo[4,3-a]quinoxaline]
[1]; 2 min p.i.
  SUV Blood: 0.96 ± 0.05
  SUV Cerebellum: 1.22 ± 0.23
  SUV Cortex: 2.36 ± 0.48
  SUV Hippocampus: 1.87 ± 0.22
  SUV Rest of cerebrum: 2.63 ± 0.41
  SUV Striatum: 4.36 ± 0.42
[1]; 10 min p.i.
  SUV Blood: 0.90 ± 0.08
  SUV Cerebellum: 0.27 ± 0.02
  SUV Cortex: 0.53 ± 0.02
  SUV Hippocampus: 0.33 ± 0.04
  SUV Rest of cerebrum: 0.57 ± 0.02
  SUV Striatum: 1.77 ± 0.08
[1]; 30 min p.i.
  SUV Blood: 0.59 ± 0.08
  SUV Cerebellum: 0.12 ± 0.04
  SUV Cortex: 0.15 ± 0.04
  SUV Hippocampus: 0.14 ± 0.04
  SUV Rest of cerebrum: 0.22 ± 0.08
  SUV Striatum: 0.61 ± 0.20
[2]; 2 and 10 min p.i.
  apolar radiometabolites in plasma: No apolar radiometabolites were detected
[2]; 2 min p.i.
  recovered radioactivity present as intact tracer in plasma: about 70%
[2]; 10 min p.i.
  recovered radioactivity present as intact tracer in plasma: ~20%
[3]; 2 and 10 min p.i.
  apolar radiometabolites in brain: No apolar radiometabolites were detected
[3]; 2 min p.i., n=1
  intact tracer in cerebrum and cerebellum: almost all of the recovered radioactivity in cerebrum and in cerebellum was present as intact tracer
[3]; 10 min p.i., n=1
  % of intact tracer in cerebellum: 82%
[4]; 2 min
  % of the ID in the cerebellum: ~0.1%
  % of the ID in the cerebrum: ~1.0%
  % of the injected dose present in the blood: about 6.7%
  total brain uptake of the tracer (% ID): ~1.2%
[4]; 10 min
  % ID in the brain: 0.2%
[4]; 30 min
  % ID in the brain: 0.1 % ID
  % ID in the urine and the kidneys: 19 % ID
  % of ID present in the liver and intestines: 49%
  % of the injected dose present in the blood: 4.1%

Reference: patent publication US10604523B2, “1-aryl-4-methyl-[1,2,4]triazolo[4,3-a]quinoxaline derivatives” (Janssen Pharmaceutica NV, priority 2011, dated 2020)
